{"source": "patent US9993453B2", "about": "“Dosage forms and therapeutic uses L-4-chlorokynurenine” (VISTAGEN THERAPEUTICS, INC., priority 2013, dated 2018)", "key": {"[1]": {"tested_on": "excitotoxic and ischemic neuronal damage", "conditions": "cited from earlier work"}, "[2]": {"conditions": "after administration; cited from earlier work"}, "[3]": {"molecular_target": "glycine B (GlyB) coagonist site on the NMDA-R (Homo sapiens, UniProt Q05586)", "conditions": "cited from earlier work"}, "[4]": {"assay": "Phase 1b clinical study: plasma pharmacokinetics after single and multiple once-daily oral doses of AV-101", "conditions": "human plasma", "protocol": "(§1) A Phase 1b, single-site, randomized, double-blind, placebo-controlled, study was conducted involving multiple oral doses of AV-101 in healthy male and female subjects. Subjects were randomized into one of three cohorts (360, 1,080, and 1,440 mg) and received a daily oral dose for 14 consecutive days. […] The safety, pharmacokinetics (PK), tolerability of treatment, and antihyperalgesic effect of AV-101 on capsaicin-induced hyperalgesia were assessed.\n(§2) Blood was collected in 6-mL lithium heparin Vacutainer tubes. Samples were centrifuged, and the plasma was separated from the cells and frozen within 30 minutes after centrifugation. Centrifuged samples were placed on ice until they were placed in the freezer. Plasma samples were stored frozen at approximately −20° C. until their shipment to a contractor for analysis.\n(§3) Baseline samples (0 minutes) were collected before the drug was administered on Day 1 and on Day 14. Samples were then collected at 0.5, 1, 1.5, 2, 4, 6, 8, 12, and 24 hours after dosing on Day land Day 14.\n(§4) Both assays used a plasma sample volume of 50.0 μL."}, "[5]": {"tested_on": "capsaicin-induced hyperalgesia", "assay": "Antihyperalgesic effect on capsaicin-induced hyperalgesia (VAS pain assessments) in Phase 1b study", "assay_type": "in vivo, human", "method": "On Day 1 and Day 14 of the clinical study, two intradermal injections of 250 μg of capsaicin were injected sequentially into the volar aspect of alternate forearms to produce burning pain, secondary hyperalgesia, and a flare. The capsaicin USP (United States Pharmacopeia) was prepared according to the site's standard procedure and dissolved in 20% cyclodextrin at a concentration of 10 mg/mL.\nThe first capsaicin injection in one forearm was given 1 hour after oral administration of AV-101 or placebo, and the second capsaicin injection was given in the other forearm 2 hours after the administration of AV-101 or placebo. The neurosensory testing began immediately at each capsaicin injection. The serial pain assessments using a 100-mm visual analog scale (VAS) occurred at preinjection and 0, 5, 10, 15, 30, 45, and 60 minutes after each capsaicin injection. The examiner asked the subject to rate the intensity by using the VAS of the spontaneous pain and elicited pain from the application of a 5.18 von Frey hair, 40° C. probe, and gentle stroking with a 1-inch foam brush. The VAS consisted of a 100-mm line with “no pain” written at the 0-mm end and the “worst imaginable pain” written at the 100-mm end. The distance in millimeters provided the pain measurement.\nAt least eight determinations of the hyperalgesic area borders were made using the same assessments and starting at different angles. Additionally, subjects were asked to rate the pain intensity of a 1-minute 45° C. heat stimulus (brief thermal stimulation) applied to the anterior thigh at 4.5 hours (±5 minutes) after study drug administration, then every 30 minutes (±5 minutes) through 6 hours after study drug administration. A radiant temperature probe was applied to fix the skin temperature at 36° C. during the pain assessments. Subjects used the VAS for all pain assessments.\nAll study assessment time points were anchored to Time 0, the time of study drug administration. For the capsaicin injection at 1 hour after dosing, the assessment interval (i.e., time after dosing of the study drug) was 60 to 120 minutes, during which time assessments occurred at approximately 60, 65, 70, and 75 minutes and then every 15 minutes through the 120-minute time point (i.e., 0, 5, 10, 15, 30, 45, and 60 minutes after capsaicin injection). The second injection of capsaicin was administered approximately 2 hours after dosing of the clinical trial material (CTM), and the assessment interval (i.e., time after dosing of the CTM) was 120 to 180 minutes. The serial pain assessments followed the same schedule, as described after the first capsaicin injection.\nThe primary efficacy endpoint was the analgesic response to spontaneous pain at each dose level of AV-101 120 to 180 minutes after dosing on Day 14."}, "[6]": {"conditions": "human, in vivo, po", "protocol": "as §1, §2, §3, §4"}, "dopaminergic neurons": {"tested_on": "dopaminergic neurons", "conditions": "brains of rats (Reference 7); cited from earlier work"}, "[7]": {"tested_on": "peripheral tissue inflammation and nerve injury", "assay": "Animal models of peripheral tissue inflammation and nerve injury", "assay_type": "in vivo"}, "seizures": {"tested_on": "seizures", "conditions": "rats, preclinical studies (Reference 11); cited from earlier work"}, "[8]": {"assay": "Safety and tolerability in humans (clinical study)", "assay_type": "in vivo, human", "conditions": "certain doses (360, 1,080, 1,440 mg daily oral)", "method": "The compound is an antihyperalgesic.\n“Without significant adverse effect” means that substantially all patients to whom L-4-chlorokynurenine is administered will have no more than a “mild” adverse event as defined by the U.S. Food and Drug Administration (FDA). The FDA defines a “mild adverse event” as an event that is easily tolerated by the subject, causing minimal discomfort and not interfering with everyday activities. In contrast, a “moderate adverse event” is an event that is sufficiently discomforting causing it to interfere with normal everyday activities."}, "[9]": {"assay": "Reported feelings of well-being (anti-depressive activity) in the clinical study", "assay_type": "in vivo, human", "conditions": "zero subjects in the placebo group", "excerpt": "In the clinical study described in this application, 5 out of 26 subjects (as contrasted with zero subjects in the placebo group) affirmatively reported feelings of well being. This is consistent with reports that the glutamatergic system contributes to the pathophysiology of depression and that stress can induce changes in NMDA receptors. See, for example, Calabrese et al. “Stress-Induced Changes of Hippocampal NMDA Receptors: Modulation by Duloxetine Treatment,” PLoS ONE 2012, 7(5): e37916. doi:10.1371/journal.pone.0037916."}, "activated astrocytes": {"tested_on": "activated astrocytes", "conditions": "within activated astrocytes (Reference 5); cited from earlier work"}, "[10]": {"conditions": "Day 1, after 1,440-mg oral dose of L-4-chlorokynurenine"}}, "note": "Like-named read-outs stand apart in the source and are kept apart here."}
{"smiles": "O=C(O)c1cc(O)c2ccc(Cl)cc2n1", "note": "[7-chlorokynurenic acid]", "values": [{"measurement": "Prevention of excitotoxic and ischemic neuronal damage", "setting": "[1]", "result": "prevent excitotoxic and ischemic neuronal damage"}, {"measurement": "Crossing of the blood-brain barrier / access to the CNS", "setting": "[2]", "result": "does not cross the blood-brain barrier"}, {"measurement": "GlyB antagonist potency and specificity", "setting": "[3]", "result": "One of the most potent and specific GlyB antagonists"}, {"measurement": "Mean 7-chlorokynurenic acid Cmax", "setting": "[4]; Day 1, after 360-mg oral dose of L-4-chlorokynurenine", "result": 42.7, "unit": "ng/mL"}, {"measurement": "Mean 7-chlorokynurenic acid AUCO-t", "setting": "[4]; [10]", "result": 985, "unit": "ng·b/mL"}, {"measurement": "Mean 7-chlorokynurenic acid Cmax", "setting": "[4]; [10]", "result": 314, "unit": "ng/mL"}, {"measurement": "Mean 7-chlorokynurenic acid AUCO-t", "setting": "[4]; Day 1, after lowest dose (360 mg) of L-4-chlorokynurenine", "result": 156, "unit": "ng·h/mL"}, {"measurement": "Dose linearity of mean 7-chlorokynurenic acid Cmax and AUCO-t", "setting": "[4]; after oral L-4-chlorokynurenine 360 to 1,440 mg", "result": "approximately dose linear"}, {"measurement": "Mean Cmax and AUCO-t of 7-chlorokynurenic acid on Day 14 compared with Day 1", "setting": "[4]; once-daily oral L-4-chlorokynurenine for 14 days", "result": "slightly lower on Day 14 than those on Day 1"}]}
{"smiles": "Nc1cc(Cl)ccc1C(=O)CC(N)C(=O)O", "note": "[L-4-chlorokynurenine]", "values": [{"measurement": "Least squares means of the AUPC for allodynia pain, mechanical hyperalgesia pain and heat hyperalgesia pain", "setting": "[5]; 1,080 mg (Cohort 2) versus placebo", "result": "consistent decrease"}, {"measurement": "MAXPAIN, Spontaneous Pain", "setting": "[5]; 1080 mg oral daily, n=13, 100-mm VAS, placebo 77.00", "result": 75.08}, {"measurement": "MAXPAIN, Allodynia Pain (foam brush)", "setting": "[5]; 1080 mg oral daily, n=13, 100-mm VAS, placebo 79.50", "result": 70.92}, {"measurement": "MAXPAIN, Mechanical Allogesia", "setting": "[5]; 1080 mg oral daily, n=13, 100-mm VAS, placebo 79.75", "result": 66.23}, {"measurement": "MAXPAIN, Heat Allogesia", "setting": "[5]; 1080 mg oral daily, n=13, 100-mm VAS, placebo 84.75", "result": 78.85}, {"measurement": "Secondary efficacy endpoints (AUPC for spontaneous pain, elicited pain from von Frey hair and 40° C. probe)", "setting": "[5]; 120 to 180 minutes Day 1, 60 to 180 minutes Days 1 and 14, versus placebo", "result": "no significant changes"}, {"measurement": "Area under the pain time curve (AUPC) for spontaneous pain, primary efficacy endpoint", "setting": "[5]; each dose level, 120 to 180 minutes after dosing on Day 14, versus placebo", "result": "no significant change"}, {"measurement": "Subject-reported relief from neuropathic pain, specifically hyperalgesia pain", "setting": "[5]; humans, at the clinical dosages", "result": "subjects reported relief from neuropathic pain"}, {"measurement": "Dose linearity of mean L-4-chlorokynurenine Cmax and AUCO-∞", "setting": "[6]", "result": "approximately dose linear, although not proportional"}, {"measurement": "Mean Cmax and AUCO-t of L-4-chlorokynurenine on Day 14 compared with Day 1", "setting": "[6]", "result": "slightly lower on Day 14 than those on Day 1"}, {"measurement": "Mean L-4-chlorokynurenine AUCO-t", "setting": "[6]", "result": 196000, "unit": "ng·h/mL"}, {"measurement": "Mean L-4-chlorokynurenine Tmax", "setting": "[6]", "result": "~2", "unit": "h"}, {"measurement": "Mean t½ of L-4-chlorokynurenine", "setting": "[6]", "result": "1.64 to 1.82", "unit": "h"}, {"measurement": "Mean L-4-chlorokynurenine AUCO-t", "setting": "[6]; 360 mg", "result": 64000, "unit": "ng·h/mL"}, {"measurement": "Firing rate and burst firing activity of dopaminergic neurons", "setting": "dopaminergic neurons", "result": "increase the firing rate and burst firing activity"}, {"measurement": "Crossing of the blood-brain barrier / access to the CNS", "setting": "[2]", "result": "readily gains access to the central nervous system"}, {"measurement": "Tolerability in animal models", "setting": "[7]; at doses that produce antihyperalgesic effects", "result": "well tolerated"}, {"measurement": "Antihyperalgesic actions in animal models", "setting": "[7]; three animal models of peripheral tissue inflammation and nerve injury", "result": "potent antihyperalgesic actions"}, {"measurement": "Anti-seizure activity", "setting": "seizures", "result": "anti-seizure activity"}, {"measurement": "Safety and tolerability in humans", "setting": "[8]", "result": "safe and tolerable in humans without substantial side effects or any significant adverse effects"}, {"measurement": "Subjects affirmatively reporting feelings of well being", "setting": "[9]", "result": "5 out of 26"}, {"measurement": "Conversion to 7-chlorokynurenic acid", "setting": "activated astrocytes", "result": "efficiently converted"}]}
